Marks after values point to notes of the source that are not given here.
What was measured:
[1] = test system: Neisseria meningitides ATCC 1302; assay: disk diffusion assay, inhibition zone; type: cell-based; details: N. meningitides
[2] = biological effects of compound 4 alone in mice (not infected);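 on daily body weight: compound given twice daily to the uninfected group for 2 weeks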; type: in vivo; set-up: Total Protein Mean ± SE: unit not given here; details: for daily body weight / % change in daily body weight / Food consumption / Mortality / Water consumption: i.v. 12 mg/kg then 6 mg/ml
Experimental: The experiment was performed in Experimental Animal Care Center (EACC), College of Pharmacy, King Saud University, Riyadh. Fifty Albino male mice, weighing nearly 30±2 gram were used. The mice were arranged in five groups, each including ten mice caged together, given water, and feed ad libitum. […] The group treated with standard drug (fluconazole) was infected intravenously with 0.2 ml of C. albicans suspension (10^6 CFU/mouse) and treated (orally) by 12 mg/kg of fluconazole (loading dose) on the first day followed by 6 mg/ml for 2 weeks.
The biological parameters included daily body weight (gm), mortality (%), food consumption (g/day/mouse), water consumption (ml/day/mouse), serum glutamic oxaloacetic transaminase [SGOT(AST) (U/L)], serum glutamic-pyruvic transaminase [SGPT(ALT)(U/L)], alkaline phosphatase (U/L), gamma-glutamyl transferase (GGT) (U/L), bilirubin (mg/dl)], cholesterol (mg/dl), triglycerides (mg/dl), high-density lipoprotein (HDL) (mg/dl), very-low-density lipoprotein (VLDL) (mg/dl), low-density lipoprotein (LDL) (mg/dl), lactate dehydrogenase (LDH) (U/L), glucose (mg/dl), total protein (mg/dl), malondialdehyde (MDA) (nmol/g), nonprotein sulfyhydryl (NP-SH) (nmol/g). […] SGOT (AST), SGPT (ALT), ALP, GGT, bilirubin LDH and total protein were estimated using Reflotron Plus Analyzer and Roche kits (Roche Diagnostics GmbH, Mannheim Germany) and United diagnostic kits assay. Hematological tests were performed by Mindray BC-2800VET auto Hematology Analyzer.

[3] = blood, uninfected mice, i.v. 12 mg/kg then 6 mg/ml for 2 weeks
[4] = liver tissue, uninfected mice, i.v. 12 mg/kg then 6 mg/ml for 2 weeks
[5] = serum, uninfected mice, i.v. 12 mg/kg then 6 mg/ml for 2 weeks

## CCOC(=O)CSC(=S)SCC(=O)OCC [Compound 4, diethyl 2,2′-(thiocarbonylbis(sulfanediyl))diacetate]
[1]
  biological activity, in words: very good
[1]; 4 mg/disk, soluble water compound 4
  Inhibition zone diameter: 22.6 ± 0.5 C mm
[2]; [3]
  Eosinophils Mean ± SE: 2.38 ± 0.09%
  HCT Mean ± SE: 45.9 ± 1.51^a
  HGB Mean ± SE: 12.4 ± 0.18^a g/dL
  Lymphocytes Mean ± SE: 4.8 ± 0.09%
  MCH Mean ± SE: 39.0 ± 1.0 pg
  MCHC Mean ± SE: 32.6 ± 0.9 g/dL
  MCV Mean ± SE: 87.31 ± 1.74 fL
  Monocytes Mean ± SE: 1.15 ± 0.01%
  Neutrophils Mean ± SE: 33.3 ± 1.1%
  PLT Mean ± SE: 670.7 ± 15.3 10^3/mm^3
  RBC Mean ± SE: 9.26 ± 0.1 10^6/mm^3
  WBC Mean ± SE: 8795 ± 45.9 Cell/mm^3
[2]; [4]
  MDA: 0.94 ± 0.03***^a nmol/g
  NP-SH: 6.88 ± 0.22***^a nmol/g
  Total Protein: 129.04 ± 2.80**^a g/l
[2]; mice
  side effects on food and water consumption comparing with control group: no negative side effects
[2]; serum, uninfected mice, 12 mg/kg then 6 mg/ml for 2 weeks
  Alkaline phosphatase Mean ± SE: 286.62 ± 4.67^a U/L
[2]; [5]
  Bilirubin Mean ± SE: 0.57 ± 0.017^a mg/dl
  Cholesterol Mean ± SE: 78.68 ± 3.2 mg/dL
  GGT Mean ± SE: 4.40 ± 0.13^a U/L
  Glucose level Mean ± SE: 96.38 ± 3.62**^a mg/dl
  HDL Mean ± SE: 41.6 ± 2.1^a mg/dl
  LDH Mean ± SE: 162.50 ± 1.84^a U/L
  LDL Mean ± SE: 23.3 ± 3.0 mg/dL
  SGOT(AST) Mean ± SE: 89.07 ± 3.82 U/L
  SGPT(ALT) Mean ± SE: 28.67 ± 1.15^a U/L
  Total Protein Mean ± SE: 7.66 ± 0.18
  Triglycerides Mean ± SE: 68.5 ± 1.6 mg/dL
  VLDL Mean ± SE: 13.7 ± 0.3 mg/dL
[2]; uninfected mice
  mortality in the group treated only with the compound, in words: close to the control group
[2]; uninfected mice, day 0
  daily body weight: 20.20 ± 0.38 gm
[2]; uninfected mice, day 1
  % change in daily body weight: 0.49%
  Food consumption: 4.2 g/day/mice
  Mortality: 0%
  Water consumption: 5.2 g/day/mice
  daily body weight: 20.30 ± 0.36 gm
[2]; uninfected mice, day 2
  % change in daily body weight: 9.40%
  Food consumption: 4.5 g/day/mice
  Mortality: 0%
  Water consumption: 5.2 g/day/mice
  daily body weight: 22.10 ± 0.23 gm
[2]; uninfected mice, day 3
  % change in daily body weight: 16.83%
  Food consumption: 4.4 g/day/mice
  Mortality: 0%
  Water consumption: 5.4 g/day/mice
  daily body weight: 23.60 ± 0.33 gm
[2]; uninfected mice, day 4
  % change in daily body weight: 19.80%
  Food consumption: 4.5 g/day/mice
  Mortality: 0%
  Water consumption: 5.5 g/day/mice
  daily body weight: 24.20 ± 0.20 gm
[2]; uninfected mice, day 5
  % change in daily body weight: 23.26%
  Food consumption: 4.6 g/day/mice
  Mortality: 0%
  Water consumption: 5.5 g/day/mice
  daily body weight: 24.90 ± 0.23 gm
[2]; uninfected mice, day 6
  % change in daily body weight: 27.22%
  Food consumption: 4.6 g/day/mice
  Mortality: 0%
  Water consumption: 5.7 g/day/mice
  daily body weight: 25.70 ± 0.21 gm
[2]; uninfected mice, day 7
  % change in daily body weight: 29.70%
  Food consumption: 4.8 g/day/mice
  Mortality: 0%
  Water consumption: 5.8 g/day/mice
  daily body weight: 26.20 ± 0.24 gm
[2]; uninfected mice, day 8
  % change in daily body weight: 32.17%
  Food consumption: 4.9 g/day/mice
  Mortality: 0%
  Water consumption: 5.8 g/day/mice
  daily body weight: 26.70 ± 0.26 gm
[2]; uninfected mice, day 9
  % change in daily body weight: 32.67%
  Food consumption: 4.9 g/day/mice
  Mortality: 0%
  Water consumption: 5.9 g/day/mice
  daily body weight: 26.80 ± 0.29 gm
[2]; uninfected mice, day 10
  % change in daily body weight: 33.66%
  Food consumption: 5.1 g/day/mice
  Mortality: 0%
  Water consumption: 5.9 g/day/mice
  daily body weight: 27.00 ± 0.27 gm
[2]; uninfected mice, day 11
  % change in daily body weight: 35.64%
  Food consumption: 5.2 g/day/mice
  Mortality: 0%
  Water consumption: 6.0 g/day/mice
  daily body weight: 27.40 ± 0.35 gm
[2]; uninfected mice, day 12
  % change in daily body weight: 36.96%
  Food consumption: 6.0 g/day/mice
  Mortality: 0%
  Water consumption: 6.11 g/day/mice
  daily body weight: 27.66 ± 0.28 gm
[2]; uninfected mice, day 13
  % change in daily body weight: 35.51%
  Food consumption: 6.0 g/day/mice
  Mortality: 10%
  Water consumption: 6.2 g/day/mice
  daily body weight: 27.77 ± 0.27 gm
[2]; uninfected mice, day 14
  % change in daily body weight: 38.61%
  Food consumption: 6.1 g/day/mice
  Mortality: 10%
  Water consumption: 6.2 g/day/mice
  daily body weight: 28.00 ± 0.37 gm
[2]; uninfected mice, day 15
  % change in daily body weight: 41.70%
  Food consumption: 6.1 g/day/mice
  Mortality: 10%
  Water consumption: 6.3 g/day/mice
  daily body weight: 28.62 ± 0.41 gm
